Patent US20260234159A1, “SMALL MOLECULE TREATMENT OF FATTY LIVER DISEASE AND HCC” (SCANDIEDGE THERAPEUTICS AB, priority 2023, published 2026)

Key:
JNK1/2/3 = experiment: Western blot, JNK1/2/3 P54 and p46 isoforms; assay type: cell-based, human; details: 10 μM, 2 days
Description: HepG2 cells were seeded into a 6-well plate at 400,000 cells per well. After treatment with 10 μM of JNK-IN-5A and its derivatives for two days, lysates were harvested with CelLytic M (C2978, Sigma-Aldrich). […] SDS PAGE were performed using Mini-PROTEAN® TGX™ Precast Gels (Bio-Rad) and transferred using Trans-Blot® Turbo™ Transfer System (Bio-Rad). […] ImageQuantTMLAS 500 (29-0050-63, GE) was used to detect protein bands.

Caspase 3 = experiment: Western blot, active caspase 3; assay type: cell-based, human; details: 10 μM, 2 days
Description: (§1) HepG2 cells were seeded into a 6-well plate at 400,000 cells per well. After treatment with 10 μM of JNK-IN-5A and its derivatives for two days, lysates were harvested with CelLytic M (C2978, Sigma-Aldrich). 20 μg lysate was prepared with 2× Laemmli Sample Buffer (1610737, Biorad). SDS PAGE were performed using Mini-PROTEAN® TGX™ Precast Gels (Bio-Rad) and transferred using Trans-Blot® Turbo™ Transfer System (Bio-Rad). Primary antibody, PARP (95425, Cell signalling), Caspase 3 (ab32042, abcam), Bcl-2 (ab182858), STAT1 (HPA000982, Merk), PKL (06653, Sigma), PKM (4053S, Cell signalling), GAPDH (ab8245, abcam), P53 (ab32389, abcam), p21 (ab109199, abcam), p-S349 p62 (ab211324, abcam), p62 (ab109012, abcam), c-Myc (ab32072, abcam), GPX4 (ab125066, abcam), MMP9 (MA5-32705, Invitrogen), β-actin (ab8227, abcam), and α-tubulin (ab7291, abcam) were blotted overnight and Goat Anti-Rabbit HRP (ab205718) and goat anti-mouse IgG-HRP (sc2005, Santa Cruz Biotechnology, Inc.) were blotted for secondary antibody for one hour. ImageQuantTMLAS 500 (29-0050-63, GE) was used to detect protein bands.

p53 = experiment: Nuclear protein western blot, p53; assay type: cell-based, human; details: 10 μM, 2 days; compared to sorafenib and regorafenib
Description: as §1

HepG2 cells = experiment: LDH cytotoxicity assay, time dependent; assay type: cell-based, human; details: 10 μM, up to 4 days
Description: HepG2 cells were maintained and used with RPMI 1640 (R2405, Sigma-Aldrich) supplemented with 10% fetal bovine serum (F7524, Sigma-Aldrich), 1% P/S (P4333, Sigma-Aldrich). 20,000 cells per well of HepG2 cells were seeded into a 96-well plate and triplicated for MTT assay and LDH assay. Cell viability was measured by MTT assay (M6494, ThermoFisher) and cytotoxicity was measured by LDH assay kit (ab65393, abcam) by following manufacturer's instructions. Optical density (O.D) was numerated using a microplate reader (Hidex Sense Meta Plus).

PARP = experiment: Western blot, cleaved PARP; assay type: cell-based, human; details: 10 μM, 2 days
Description: as §1

[1] = In vivo toxicological study in rats: haematology; design: species or system rats of the Wistar strain
GPX4 = experiment: Western blot, GPX4; assay type: cell-based, human; details: compared to the control
Description: as §1

[2] = female, 30 mg/kg oral daily 7 d
[3] = female, 100 mg/kg oral daily 7 d
[4] = female, 300 mg/kg oral daily 7 d

For `N#Cc1c(NC(=O)c2cccc3ccccc23)sc2c1CCN(CC(=O)Nc1cccc(Br)c1)C2` [PKL-B171], the “JNK1/2/3 p46 expression” value (JNK1/2/3) was 0.87 times, the “active caspase 3 levels” value (Caspase 3) was 14.66 times and the “nuclear-localized p53” value (p53) was “significant increase”. For the same compound, the “necrotic cell death (LDH)” value (HepG2 cells) was “pronounced late necrotic cell death from day 3 to 4”, the “increase in cleaved PARP vs untreated control” value (PARP) was 87.97 times and the GRAN [1, 2] was 0.77 10^9/l. The HCT [1, 2] was 43.0%, the HGB [1, 2] was 15.3 g/dL and the LYM [1, 2] was 4.6 10^9/l. It also gave an MCH [1, 2] of 18.9 pg, an MCHC [1, 2] of 35.6 g/dL and an MCV [1, 2] of 53.3 fL. The MONO [1, 2] was 0.13 10^9/l, the PLT [1, 2] was 933 10^9/l and the RBC [1, 2] was 8.08 10^12/l. The RDW % [1, 2] was 14.6%, the WBC [1, 2] was 5.5 10^9/l and the GRAN [1, 3] was 0.77 10^9/l. The HCT [1, 3] was 40.8%, the HGB [1, 3] was 14.4 g/dL and the LYM [1, 3] was 4.4 10^9/l. It also gave an MCH [1, 3] of 19.7 pg, an MCHC [1, 3] of 35.4 g/dL and an MCV [1, 3] of 55.5 fL. For the same compound, the MONO [1, 3] was 0.10 10^9/l, the PLT [1, 3] was 1106 10^9/l and the RBC [1, 3] was 7.36 10^12/l. The RDW % [1, 3] was 14.1%, the WBC [1, 3] was 5.2 10^9/l and the GRAN [1, 4] was 1.23 10^9/l. For the same compound, the HCT [1, 4] was 40.5%, the HGB [1, 4] was 14.4 g/dL and the LYM [1, 4] was 5.7 10^9/l. It also gave an MCH [1, 4] of 19.1 pg, an MCHC [1, 4] of 35.7 g/dL and an MCV [1, 4] of 53.5 fL. The MONO [1, 4] was 0.17 10^9/l, the PLT [1, 4] was 1027 10^9/l and the RBC [1, 4] was 7.55 10^12/l. The RDW % [1, 4] was 14.2%, the WBC [1, 4] was 7.1 10^9/l and the GRAN ([1]; male, 30 mg/kg oral daily 7 d) was 1.17 10^9/l. For the same compound, the HCT ([1]; male, 30 mg/kg oral daily 7 d) was 40.6%, the HGB ([1]; male, 30 mg/kg oral daily 7 d) was 14.4 g/dL and the LYM ([1]; male, 30 mg/kg oral daily 7 d) was 6.3 10^9/l. The MCH ([1]; male, 30 mg/kg oral daily 7 d) was 19.7 pg, the MCHC ([1]; male, 30 mg/kg oral daily 7 d) was 35.4 g/dL and the MCV ([1]; male, 30 mg/kg oral daily 7 d) was 55.5 fL. The MONO ([1]; male, 30 mg/kg oral daily 7 d) was 0.17 10^9/l, the PLT ([1]; male, 30 mg/kg oral daily 7 d) was 991 10^9/l and the RBC ([1]; male, 30 mg/kg oral daily 7 d) was 7.31 10^12/l. The RDW % ([1]; male, 30 mg/kg oral daily 7 d) was 14.8%, the WBC ([1]; male, 30 mg/kg oral daily 7 d) was 7.7 10^9/l and the GRAN ([1]; male, 100 mg/kg oral daily 7 d) was 1.30 10^9/l. The HCT ([1]; male, 100 mg/kg oral daily 7 d) was 43.2%, the HGB ([1]; male, 100 mg/kg oral daily 7 d) was 15.2 g/dL and the LYM ([1]; male, 100 mg/kg oral daily 7 d) was 6.6 10^9/l. It also gave an MCH ([1]; male, 100 mg/kg oral daily 7 d) of 20.1 pg, an MCHC ([1]; male, 100 mg/kg oral daily 7 d) of 35.2 g/dL and an MCV ([1]; male, 100 mg/kg oral daily 7 d) of 57.1 fL. The MONO ([1]; male, 100 mg/kg oral daily 7 d) was 0.17 10^9/l, the PLT ([1]; male, 100 mg/kg oral daily 7 d) was 981 10^9/l and the RBC ([1]; male, 100 mg/kg oral daily 7 d) was 7.57 10^12/l. For the same compound, the RDW % ([1]; male, 100 mg/kg oral daily 7 d) was 14.9%, the WBC ([1]; male, 100 mg/kg oral daily 7 d) was 8.1 10^9/l and the GRAN ([1]; male, 300 mg/kg oral daily 7 d) was 1.40 10^9/l. For the same compound, the HCT ([1]; male, 300 mg/kg oral daily 7 d) was 43.6%, the HGB ([1]; male, 300 mg/kg oral daily 7 d) was 15.4 g/dL and the LYM ([1]; male, 300 mg/kg oral daily 7 d) was 7.0 10^9/l. For the same compound, the MCH ([1]; male, 300 mg/kg oral daily 7 d) was 19.6 pg, the MCHC ([1]; male, 300 mg/kg oral daily 7 d) was 35.4 g/dL and the MCV ([1]; male, 300 mg/kg oral daily 7 d) was 55.4 fL. For the same compound, the MONO ([1]; male, 300 mg/kg oral daily 7 d) was 0.20 10^9/l, the PLT ([1]; male, 300 mg/kg oral daily 7 d) was 1115 10^9/l and the RBC ([1]; male, 300 mg/kg oral daily 7 d) was 7.87 10^12/l. For the same compound, the RDW % ([1]; male, 300 mg/kg oral daily 7 d) was 15.1%, the WBC ([1]; male, 300 mg/kg oral daily 7 d) was 8.6 10^9/l and the GPX4 expression levels (GPX4) was 0.88 times.
